Measurements: patent publication US20100048604A1, “Ligands for Aldoketoreductases” (priority 2004, published 2010)

Target: T1, AKR1C3 (Homo sapiens, UniProt P42330)
T1 construct: gift of Professor Trevor Penning (University of Pennsylvania School of Medicine)
T1 sequence (P42330 1-323): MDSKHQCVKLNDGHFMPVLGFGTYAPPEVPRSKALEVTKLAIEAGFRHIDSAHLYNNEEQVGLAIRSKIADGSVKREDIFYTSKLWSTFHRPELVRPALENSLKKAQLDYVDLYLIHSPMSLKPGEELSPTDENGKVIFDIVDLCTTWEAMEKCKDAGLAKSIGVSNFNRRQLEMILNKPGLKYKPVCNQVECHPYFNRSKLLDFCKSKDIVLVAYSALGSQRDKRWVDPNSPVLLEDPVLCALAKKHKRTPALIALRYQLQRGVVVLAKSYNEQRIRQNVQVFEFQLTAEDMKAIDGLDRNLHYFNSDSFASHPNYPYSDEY
Experiment: Determination of kinetic parameters for AKR1C3 (fluorogenic substrate 5)
Format: biochemical
Method: Whether the activity of human enzymes may be imaged by probe 5 was investigated. Type 2 isozyme of 3α-HSD (AKR 1C3) was selected for this study owing to its important physiological role.
Fluorogenic substrate 5 reduction was monitored on a Hitachi F-4500 fluorimeter in Starna quartz cuvettes fluorometrically in 1 mL systems containing 100 mM potassium phosphate pH 6.0 containing excess of NADPH cofactor (250 μM) and various amounts of the substrate (0.1953-50 μM) dissolved in 4% acetonitrile. […] Cuvettes were mixed thoroughly after addition of cofactor, cosolvent, and substrate. Reactions were initiated by the addition of 4 μL of dilute AKR1C3 (115 μg/mL) and were corrected for nonenzymatic rates. All reactions were followed by monitoring the increase in fluorescence of the product alcohol for 5 minutes at λem 510 nm with λex 440 nm (Excitation and emission band pass slits both at 2.5 nm, lamp 900 V) at 37° C. The initial velocities, expressed in units of nanomoles per minute, were calculated according to previously published procedures (Wierzchowski, J.; Dafeldecker, W. P.; Holmquist, B.; Vallee, B. L. Anal. Biochem. 1989, 178, 57-62): initial rate=[nst×(Ft−F0)/(Fst)]/t where Ft and F0 represent the fluorescence at time t and 0, nst is the nanomoles of the product standard, and Fst is the fluorescence resulting from nst of product. Kinetic constants were approximated using the GraFit (Erithacus Software, Surrey, UK) non-linear regression analysis program to fit the untransformed data to a hyperbolic function as originally described (Wilkinson, G. N. Biochem. J. 1961, 80, 324-332), yielding estimated values of kcat, Km, and their associated standard errors.

[1] = 100 mM potassium phosphate pH 6.0, 250 μM NADPH, 37° C.
[2] = Type 2 isozyme of 3α-HSD (AKR 1C3)

CC(=O)c1cc(=O)oc2c3c4c(cc12)CCCN4CCC3 [compound 5, 8-Acetyl-2,3,5,6-tetrahydro-1H,4H-11-oxa-3a-aza-benzo[de]anthracen-10-one]
Kcat [1]: 8.244 min⁻¹ | Km [1]: 2460 nM | Spec. activity [1]: 0.226 µmol/min/mg | Vmax [1]: 0.1039 nmol/min | Kcat [2]: 8.2 min⁻¹ | Km [2]: 2500 nM
